Reference: ChEMBL document CHEMBL4145667, “Targeting Tumor Associated Carbonic Anhydrases IX and XII: Highly Isozyme Selective Coumarin and Psoralen Inhibitors” (ACS Med Chem Lett, 2018)

Key:
Carbonic anhydrase 1 = Carbonic anhydrase 1 (Homo sapiens, UniProt P00915); test: Binding affinity to human carbonic anhydrase 1 by stopped flow CO2 hydration method
Carbonic anhydrase 2 = Carbonic anhydrase 2 (Homo sapiens, UniProt P00918); test: Binding affinity to human carbonic anhydrase 2 by stopped flow CO2 hydration method
Carbonic anhydrase 12 = Carbonic anhydrase 12 (Homo sapiens, UniProt O43570); test: Binding affinity to human carbonic anhydrase 12 by stopped flow CO2 hydration method
Sequence of Carbonic anhydrase 12 (O43570 whole entry): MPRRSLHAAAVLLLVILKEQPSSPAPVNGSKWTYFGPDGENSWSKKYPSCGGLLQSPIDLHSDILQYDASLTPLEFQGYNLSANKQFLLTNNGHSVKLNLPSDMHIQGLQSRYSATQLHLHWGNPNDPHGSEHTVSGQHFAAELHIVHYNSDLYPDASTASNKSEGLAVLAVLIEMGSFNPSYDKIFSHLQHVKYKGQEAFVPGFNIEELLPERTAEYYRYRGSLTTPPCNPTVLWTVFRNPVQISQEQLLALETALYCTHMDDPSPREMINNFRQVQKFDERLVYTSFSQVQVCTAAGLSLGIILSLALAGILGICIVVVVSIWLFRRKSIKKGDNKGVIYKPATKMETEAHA

Carbonic anhydrase 9 = Carbonic anhydrase 9 (Homo sapiens, UniProt Q16790); test: Binding affinity to human carbonic anhydrase 9 by stopped flow CO2 hydration method

Sequence of Carbonic anhydrase 1 (P00915 whole entry): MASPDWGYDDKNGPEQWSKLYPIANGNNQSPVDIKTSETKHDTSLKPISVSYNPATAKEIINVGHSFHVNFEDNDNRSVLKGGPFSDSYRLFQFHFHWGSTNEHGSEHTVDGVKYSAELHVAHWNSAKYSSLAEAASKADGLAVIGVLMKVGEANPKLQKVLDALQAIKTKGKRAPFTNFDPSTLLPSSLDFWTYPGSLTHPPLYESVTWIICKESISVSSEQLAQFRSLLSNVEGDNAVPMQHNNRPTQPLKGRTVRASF

Row | SMILES | Ki (Carbonic anhydrase 1) | Ki (Carbonic anhydrase 2) | Ki (Carbonic anhydrase 12) | Ki (Carbonic anhydrase 9)
1 | Cc1c(CC(=O)O)c(=O)oc2cc3occ(-c4ccccc4)c3cc12 | > 10 µM | > 10 µM | 0.0094 µM | 0.0175 µM
2 | Cc1c(CC(=O)Nc2ccc(S(N)(=O)=O)cc2)c(=O)oc2cc3occ(-c4ccccc4)c3cc12 | 7.02 µM | 0.0466 µM |  | 0.0165 µM
3 | Cc1ccc(-c2coc3cc4oc(=O)c(CC(=O)Nc5ccc(S(N)(=O)=O)cc5)c(C)c4cc23)cc1 | 7.07 µM | 0.56 µM |  | 0.0916 µM
4 | Cc1ccc(-c2coc3cc4oc(=O)c(CC(=O)O)c(C)c4cc23)cc1 | > 10 µM | > 10 µM |  | 0.023 µM
5 | COC(=O)Cc1c(C)c2ccc(OCC(=O)c3ccccc3)cc2oc1=O | > 10 µM | > 10 µM |  | 0.0897 µM
6 | Cc1c(CC(=O)Nc2ccc(S(N)(=O)=O)cc2)c(=O)oc2cc3occ(-c4ccc(F)cc4)c3cc12 | 7.15 µM | 0.0795 µM |  | 0.108 µM
7 | COC(=O)Cc1c(C)c2ccc(OCC(=O)c3ccc(Cl)cc3)cc2oc1=O | > 10 µM | > 10 µM |  | 0.0236 µM

Further lines, results first:

Row | Ki (Carbonic anhydrase 1) | Ki (Carbonic anhydrase 2) | Ki (Carbonic anhydrase 12) | Ki (Carbonic anhydrase 9) | SMILES
8 | > 10 µM | > 10 µM | 0.0074 µM | 0.0177 µM | Cc1c(CC(=O)O)c(=O)oc2cc3occ(-c4ccc(F)cc4)c3cc12
9 | > 10 µM | > 10 µM |  | 0.0947 µM | Cc1c(CC(=O)O)c(=O)oc2cc3occ(-c4ccc(Cl)cc4)c3cc12
10 | > 10 µM | > 10 µM |  | 0.123 µM | COC(=O)Cc1c(C)c2ccc(OCC(=O)c3ccc(C)cc3)cc2oc1=O
11 | 6.83 µM | 0.0551 µM |  | 0.0178 µM | Cc1c(CC(=O)Nc2ccc(S(N)(=O)=O)cc2)c(=O)oc2cc3occ(-c4ccc(Cl)cc4)c3cc12
12 | > 10 µM | > 10 µM |  | 0.0847 µM | COC(=O)Cc1c(C)c2ccc(OCC(=O)c3ccc(F)cc3)cc2oc1=O
